Converted amounts (≈) assume the structure as drawn.
Columns and labels:
Assay type in all cases: functional, cell-based
[1] = system: L1210; test: Concentration required to cause 50% inhibition against murine leukemia L1210 cell line; 2-4 ug/mL; conditions: Mus musculus
[2] = system: L1210; test: Concentration required to cause 50% inhibition against murine leukemia L1210 cell line; conditions: Mus musculus
[3] = system: CCRF-CEM; test: Concentration required to cause 50% inhibition against human CEM cell lines
[4] = system: MRC5CV1; test: Cytotoxicity of compound was evaluated by incorporation of [methyl-3H]thymidine into MRC5CV1, a control fibroblast cell line, continuous exposure; conditions: Homo sapiens
[5] = system: T-24; test: Cytotoxicity of compound was evaluated by incorporation of [methyl-3H]thymidine into T24, a bladder carcinoma cell line, continuous exposure; conditions: Homo sapiens
[6] = system: MRC5CV1; test: Cytotoxicity of compound was evaluated by incorporation of [methyl-3H]thymidine into MRC5CV1, a control fibroblast cell line, for 1 hr exposure; conditions: Homo sapiens, MRC5CV1, 1 h
[7] = system: T-24; test: Cytotoxicity of compound was evaluated by incorporation of [methyl-3H]thymidine into T24, a bladder carcinoma cell line, for 1 hr exposure; conditions: Homo sapiens, T-24, 1 h

| IC50 [2] [µg/mL] | Compound | IC50 [1] [µg/mL] | further results |
| --- | --- | --- | --- |
| – | CC[C@H](C)[C@@H]1NC(=O)c2csc(n2)[C@@H](C)NC(=O)[C@H]2N=C(O[C@@H]2C)[C@H](C(C)C)NC(=O)c2csc(n2)[C@@H](Cc2ccccc2)NC(=O)[C@H]2N=C1O[C@@H]2C [PATELLAMIDE C] | 2 (≈ 2.62 µM) | – |
| – | CC[C@H](C)[C@@H]1NC(=O)c2csc(n2)[C@@H](C(C)C)NC(=O)[C@H]2N=C(O[C@@H]2C)[C@H]([C@@H](C)CC)NC(=O)c2csc(n2)[C@@H](C(C)C)NC(=O)[C@@H]2COC1=N2 [PATELLAMIDE A] | 2 (≈ 2.69 µM) | – |
| > 10 | CC[C@@H](C)[C@H]1NC(=O)c2csc(n2)[C@H](C(C)C)NC(=O)[C@H]2N=C(O[C@@H]2C)[C@@H]2CCCN2C(=O)[C@H](Cc2ccccc2)NC(=O)c2csc1n2 [LISSOCLINAMIDE 1] | – | – |
| > 10 | CC[C@@H](C)[C@H]1NC(=O)[C@H]2N=C(O[C@@H]2C)[C@@H]2CCCN2C(=O)[C@H](Cc2ccccc2)NC(=O)c2csc(n2)[C@H](C)NC(=O)C2CSC1=N2 [LISSOCLINAMIDE 3] | – | – |
| 0.8 (≈ 1.08 µM) | CC(C)[C@@H]1NC(=O)[C@H]2N=C(O[C@@H]2C)[C@@H]2CCCN2C(=O)[C@H](Cc2ccccc2)NC(=O)c2csc(n2)[C@H](Cc2ccccc2)NC(=O)[C@H]2CSC1=N2 | – | – |
| 0.35 (≈ 0.459 µM) | CC(C)C[C@H]1NC(=O)[C@H]2N=C(O[C@@H]2C)[C@H]2CSSC[C@@H](NC(=O)c3csc1n3)C1=N[C@H](C(=O)N[C@H](CC(C)C)c3nc(cs3)C(=O)N2)[C@@H](C)O1 [ULITHIACYCLAMIDE] | – | IC50 [3]: 0.01 µg/mL (≈ 0.0131 µM); IC50 [4]: 0.04 µg/mL (≈ 0.0524 µM); IC50 [5]: 0.1 µg/mL (≈ 0.131 µM); IC50 [6]: 0.22 µg/mL (≈ 0.288 µM); IC50 [7]: 0.15 µg/mL (≈ 0.197 µM) |
| > 10 | CC[C@@H](C)[C@H]1NC(=O)[C@H]2N=C(O[C@@H]2C)[C@@H]2CCCN2C(=O)[C@H](Cc2ccccc2)NC(=O)c2csc(n2)[C@@H](C)NC(=O)C2CSC1=N2 [LISSOCLINAMIDE 2] | – | – |
| – | CC[C@H](C)[C@@H]1NC(=O)c2csc(n2)[C@@H](C)NC(=O)[C@H]2N=C(O[C@@H]2C)[C@H](CC(C)C)NC(=O)c2csc(n2)[C@@H](Cc2ccccc2)NC(=O)[C@H]2N=C1O[C@@H]2C [PATELLAMIDE B] | 2 (≈ 2.57 µM) | – |

Source: ChEMBL document CHEMBL1124500, “New cyclic peptides with cytotoxic activity from the ascidian Lissoclinum patella” (J Med Chem, 1989)
